{
  "source": "patent US20260193672A1",
  "about": "“INDUCIBLE CELL SUICIDE SWITCHES AND THEIR USE IN CELL AND GENE THERAPIES” (The General Hospital Corporation, priority 2022, published 2026)",
  "key": {"[1]": {"test_system": "Jurkat cells expressing the switch", "experiment": "DNA damage assay (gamma-H2AX intracellular flow)", "type": "cell-based", "text": "To determine whether promoter strength modifies ICADdegron-CAD suicide switch efficiency, Jurkat cells were transduced to express the ICAD-degron 2A CAD p.R11W suicide switch was expressed, driven by an EF1alpha or PGK promoter."}, "[2]": {"test_system": "primary human CAR T cells", "experiment": "Competitive proliferation assay of suicide switch-transduced versus untransduced cells", "type": "cell-based", "details": "without lenalidomide", "text": "Cells were stimulated weekly with an equal number of irradiated K562 cells transduced to express CD3 and CD28 scFvs. Flow cytometry was used to enumerate the percentage of mTagBFP2+ cells on days 0, 7, and 14."}, "primary human T cells": {"test_system": "primary human T cells", "experiment": "Cell depletion, CAD/ICAD versus iCasp9 suicide switch, head-to-head", "type": "cell-based", "details": "dose ranges of lenalidomide and AP1903, normalized to untreated cells", "method": "(§1) Unless otherwise indicated, cell death assays with Jurkat or primary human T cells were performed by 48 hour incubation with the relevant drug and flow cytometry analysis for the marker of transduction."}, "Jurkat cells [3]": {"test_system": "Jurkat cells", "experiment": "Competitive growth assay of modified lenalidomide suicide switches", "type": "cell-based", "details": "for cell viability, normalized fluorescence: in the absence of lenalidomide, normalized to % transduced on day 0", "text": "To assess whether further modification of CAD could further enhance the suicide switch, we performed structural modeling of CAD, identifying side chain interactions with R11 and W 11 in the mutant form."}, "primary human T cell": {"test_system": "primary human T cell", "experiment": "Four-day growth assay", "type": "cell-based", "details": "compared with other CAD sequences and vector control", "method": "To test whether variations in CAD modify the performance of CAD/ICAD suicide switch, a primary human T cell four-day growth assay was performed comparing vector control, and then three modifications of ICAD-degron 2A CAD expression, differentiated by the CAD sequences."}, "[4]": {"test_system": "cells expressing ICAD-degron/CAD", "experiment": "Cell depletion by ICAD-degron/CAD lenalidomide-inducible suicide switch (summary statement)", "type": "cell-based", "details": "lenalidomide-induced, subtherapeutic lenalidomide concentrations", "method": "as §1"}, "Jurkat cells [5]": {"test_system": "Jurkat cells", "experiment": "Loss of BFP+ cells with three degron tags fused to ICAD", "type": "cell-based", "details": "48 hours of exposure to controller drug; SMASH tag, dTAG or IKZF3 degron fused to ICAD", "method": "as §1\nTo determine whether the ICAD-degron CAD suicide switch design is generalizable to multiple degron systems, three different degron tags (SMASH, dTag, superdegron) were fused to ICAD to facilitate ICAD degradation."}, "[6]": {"test_system": "ICAD-degron/CAD suicide switch-positive primary human T cells", "experiment": "Depletion of ICAD-degron/CAD suicide switch-positive T cells", "type": "cell-based", "details": "1 uM lenalidomide treatment", "method": "as §1\nControl of CAR T cell function with a lenalidomide suicide switch was also evaluated."}, "NALM6 tumor cells": {"test_system": "NALM6 tumor cells", "experiment": "Incucyte live cell imaging co-culture assay, tumor cell cytolysis", "type": "cell-based", "method": "(§2) On day −1, tissue culture plates were coated with anti-CD71 antibody diluted in PBS. On day 0, the plates were washed with PBS and then Nalm6-luciferase-GFP cells were added to the coated plates. Four hours later, primary human CAR T cells were added at a 1:1 ratio with the Nalm6 cells. Plates were imaged every hour for at least 90 hours ([…] ZOOM, live-cell analysis system). Total green, red, and blue object areas were collected, indicative of GFP+ tumor and mCherry+/mTagBFP2+ CAR and/or suicide switch T cell area.\nTumor cell cytolysis was evaluated by Incucyte live cell imaging co-culture assay with NALM6 tumor cells.\nWe also generated a tri-cistronic suicide switch CAR lentivector. The same Incucyte live cell imaging co-culture assay with NALM6 tumor cells and single lentivector ICAD-degron/CAD/CAR was performed in primary human T cells. […] With lenalidomide, anti-tumor cytolysis was prevented."}, "[7]": {"test_system": "suicide switch CAR T cells", "experiment": "Incucyte live cell imaging co-culture assay, CAR T cell proliferation", "type": "cell-based, human", "method": "as §2\nIn summary, the suicide switch can be used to deplete CAR T cells (FIG. 6E)."}, "[8]": {"test_system": "cells transduced to express pairs of BCL-xL and variants of PUMA", "experiment": "Growth and survival of cells expressing BCL-xL and PUMA variants fused to 913iK0", "type": "cell-based", "details": "BCL-xL and PUMA variants fused to E3 recruitment domain 913iK0", "method": "Pairs of pro/anti-apoptotic proteins were evaluated for their ability to work as an effective suicide switch. BCL-xL and BIM transgene pairs were toxic to Jurkat cells transduced to express these lentiviruses, as assessed by total cell number 48 hours after high-titer transduction, see FIG. 1A. […] In this design, the goal was for the pro-apoptotic protein PUMA to bind endogenous anti-apoptotic proteins, and for drug-dependent recruitment to the E3 to result in anti-apoptotic protein ubiquitination, degradation, and cell death."}},
  "data": [
    {"molecule": "ICAD-degron 2A CAD p.R11W: multicistronic transgene: C-terminally degron-tagged human ICAD, 2A, human CAD p.R11W (SEQ ID NO: 19/20)", "values": [
      {"measurement": "DNA damage response by promoter strength", "setting": "[1]; Jurkat cells, EF1alpha promoter compared with PGK promoter", "result": "enhanced DNA damage response"},
      {"measurement": "T cell proliferation in competition with untransduced cells, compared with control", "setting": "[2]", "result": "comparable"},
      {"measurement": "cell killing compared with iCasp9 switch", "setting": "primary human T cells", "result": "more complete cell killing"},
      {"measurement": "cell viability, normalized fluorescence", "setting": "Jurkat cells [3]", "result": "improved cell viability"},
      {"measurement": "drug-independent cell fitness", "setting": "primary human T cell", "result": "enhanced drug-independent cell fitness"},
      {"measurement": "cell depletion", "setting": "[4]", "result": "> 90", "unit": "%"}
    ]},
    {"molecule": "CC[C@H](C(=O)N1CCCC[C@H]1C(=O)O[C@H](CCc1ccc(OC)c(OC)c1)c1ccccc1OCC(=O)NCCCCCCOc1cccc2c1C(=O)N(C1CCC(=O)NC1=O)C2=O)c1cc(OC)c(OC)c(OC)c1", "note": "(stereo partly drawn) [dTAG-13, 1-[(2S)-1-Oxo-2-(3,4,5-trimethoxyphenyl)butyl]-(2S)-2-piperidinecarboxylate (1R)-3-(3,4-dimethoxyphenyl)-1-[2-[2-[[6-[[2-(2,6-dioxo-3-piperidinyl)-2,3-dihydro-1,3-dioxo-1H-isoindol-4-yl]oxy]hexyl]amino]-2-oxoethoxy]phenyl]propyl ester]", "values": [
      {"measurement": "drug-dependent cell depletion (loss of BFP+ cells)", "setting": "Jurkat cells [5]", "result": "allowed for drug-dependent cell depletion"}
    ]},
    {"molecule": "Nc1nc(O)c2ncn(COC(CO)CO)c2n1", "note": "[ganciclovir]", "values": [
      {"measurement": "drug-dependent cell depletion (loss of BFP+ cells)", "setting": "Jurkat cells [5]", "result": "but not the SMASH tag, allowed for drug-dependent cell depletion"}
    ]},
    {"molecule": "ICAD-degron-CADp.R11A: suicide switch transgene with CAD p.R11A (SEQ ID NO: 23/24)", "values": [
      {"measurement": "cell viability, normalized fluorescence", "setting": "Jurkat cells [3]", "result": "improved cell viability"}
    ]},
    {"molecule": "ICAD-degron-CADp.Y49W: suicide switch transgene with CAD p.Y49W (SEQ ID NO: 25/26)", "values": [
      {"measurement": "cell viability, normalized fluorescence", "setting": "Jurkat cells [3]", "result": "improved cell viability"}
    ]},
    {"molecule": "Nc1cccc2c1CN(C1CCC(=O)NC1=O)C2=O", "note": "(stereo not drawn) [lenalidomide]", "values": [
      {"measurement": "time in which DNA damage sensing occurred", "setting": "[1]; gamma-H2AX, timecourse after 1000 nM lenalidomide addition", "result": "within one hour"},
      {"measurement": "depletion of suicide switch-positive primary human T cells", "setting": "[6]", "result": "successful depletion"},
      {"measurement": "effect on tumor cell depletion by suicide switch CAR T cells", "setting": "NALM6 tumor cells; 16 hour delayed lenalidomide, dual-vector CAR T cells", "result": "ablated tumor cell depletion"},
      {"measurement": "effect on tumor cell cytolysis by suicide switch CAR T cells", "setting": "NALM6 tumor cells; immediate lenalidomide, dual-vector CAR T cells", "result": "prevented tumor cell cytolysis"},
      {"measurement": "effect on anti-tumor cytolysis, single lentivector ICAD-degron/CAD/CAR T cells", "setting": "NALM6 tumor cells; with lenalidomide", "result": "prevented"},
      {"measurement": "time to depletion of the CAR T cells", "setting": "[7]; after 16 hour delayed lenalidomide, without rebound", "result": "≤ 24", "unit": "h"},
      {"measurement": "effect on suicide switch CAR T cell expansion", "setting": "[7]; immediate lenalidomide", "result": "prevented suicide switch CAR T cell expansion"},
      {"measurement": "drug-dependent cell depletion (loss of BFP+ cells)", "setting": "Jurkat cells [5]", "result": "allowed for drug-dependent cell depletion"},
      {"measurement": "effect on growth and survival of cells", "setting": "[8]", "result": "did not alter the growth and survival"},
      {"measurement": "cell depletion", "setting": "[4]", "result": "> 90", "unit": "%"}
    ]},
    {"molecule": "ICAD-degron-CADp.R11W/E68A: suicide switch transgene with CAD p.R11W/E68A (SEQ ID NO: 29/30)", "values": [
      {"measurement": "cell viability, normalized fluorescence", "setting": "Jurkat cells [3]", "result": "improved cell viability"}
    ]},
    {"molecule": "ICAD-degron-CADp.R11W/K18A: suicide switch transgene with CAD p.R11W/K18A (SEQ ID NO: 27/28)", "values": [
      {"measurement": "cell viability, normalized fluorescence", "setting": "Jurkat cells [3]", "result": "improved cell viability"},
      {"measurement": "cell depletion", "setting": "Jurkat cells [3]; with 1 uM lenalidomide", "result": "efficient cell depletion"},
      {"measurement": "drug-independent competitive growth", "setting": "Jurkat cells [3]; without lenalidomide", "result": "most improved"}
    ]}
  ]
}
